Measurements from patent US20230095695A1, “RNAS FOR COMPLEMENT INHIBITION” (Apellis Pharmaceuticals, Inc., priority 2020, published 2023).
Oligonucleotides are written 5' to 3', each unit as a sugar letter and its base; * is a phosphorothioate linkage, no mark a phosphodiester; rarer units and linkages stand in square brackets, end groups in braces. Plain capitals give the bases only. Non-standard residues stand in square brackets, D forms with d. {GalNAc-NHC6} = GalNAc ligand attached through an NHC6 linker; Trp(5-Me) = Cc1ccc2[nH]cc(C[C@H](N)C(=O)O)c2c1; m = 2'-O-methyl; f = 2'-fluoro

Key:
C3 mRNA [1] = assay: Liver biopsy C3 mRNA (quantitative PCR) in non-human primates after single SC dose; type: in vivo, cynomolgus monkeys; details: for reduction of liver C3 mRNA vs vehicle control: by day 15
Protocol: (§1) Naive male cynomolgus monkeys (n=3 in each group) were subcutaneously (SC) administered a single dose of either 3 mg/kg, 10 mg/kg, or 30 mg/kg siRNA 58, or vehicle (phosphate buffered saline) on day 1.
Liver needle biopsies were performed on days 15, 46 and 79. The level of C3 mRNA in the samples was measured using a quantitative PCR assay. C3 mRNA level was normalized to the level of ActB mRNA in these experiments.

C3 protein [2] = assay: Serum C3 protein (ELISA) in non-human primates after single SC dose; type: in vivo, cynomolgus monkeys; details: for reduction of serum C3 protein vs baseline: by day 29
Protocol: as §1
(§2) Serum samples were scheduled to be collected on days −5, −1, 3, 8, 15, 22, 29, 40, 57, 67, 82, 97, 112, 127, 142, 157, 172 and 184 (where negative values correspond to days before injection with siRNA 58 or vehicle). The level of C3 protein in serum was measured using an ELISA assay. Additionally, serum samples were also analyzed for alternative complement pathway activity (AH50). Values at day −1 value were used as the baseline.

[3] = system: alternative complement pathway; assay: Serum alternative complement pathway activity (AH50) in non-human primates; type: in vivo, cynomolgus monkeys
Protocol: as §1, §2

C3 protein [4] = assay: Plasma C3 protein (ELISA) in rats after SC administration; type: in vivo, Sprague-Dawley rats
Protocol: (§3) Dosing: Animals from groups 1-3 and 8 were dosed with a single subcutaneous injection of PBS vehicle or 3, 10 or 30 mg/kg siRNA 59, formulated at a concentration of 0.6, 2 and 6 mg/ml in PBS, respectively, in a dosing volume of 5 ml. Animals from groups 4-7 were dosed with 3× daily subcutaneous injection of […] siRNA 59, formulated at a concentration of 0.2, 0.6 and 2 mg/ml in PBS, respectively, in a dosing volume of 5 ml.
(§4) Sampling: For PD analyses, plasma and serum samples were collected at baseline and days 3, 8, 15, 22 and 29 post-dose. Plasma samples were collected at 15 minutes and 1, 4, 8, 24, 48 and 72 hours post-dose. Liver samples were collected at necropsy on days 3 and 30 post-dose.
Bioanalytical Methods: Plasma PD samples were analyzed for concentrations of C3 protein at Confluence Discovery Technologies (MO, USA) using a double antibody sandwich ELISA kit according to the manufacturer's instructions (Eagle Biosciences; plasma dilution of 1:10,000).

C3 mRNA [5] = assay: Liver C3 mRNA (RT-qPCR) in rats; type: in vivo, Sprague-Dawley rats; details: for mean C3 expression in liver, % of gene expression in the vehicle treated arm: 30 mg/kg
Protocol: as §3, §4
PD tissue samples were analyzed for C3 mRNA levels using a semi-validated RT-qPCR method at EpigenDx (MA, USA).

[6] = Tolerability observations in rats; type: in vivo, Sprague-Dawley rats
Protocol: as §3

alternative pathway = assay: Serum alternative pathway complement activation (AP Wieslab assay, C5b-9) in rats; type: in vivo, Sprague-Dawley rats
Protocol: as §3, §4
Serum PD samples were analyzed for alternative pathway (AP) complement activation at Confluence Discovery Technologies (MO, USA) using the AP Wieslab assay (Eagle Biosciences, Cat #COMPL AP330).
Alternative pathway complement activity: Sera from each animal treated with single dose siRNA 59 and vehicle, as well as the multi-dose siRNA (−) control-treated animals, were used in the AP Wieslab assay, an ELISA-based assay that measures formation of C5b-9 following alternative pathway activation, to assess complement activation (FIG. 8). […] Data represents mean±SEM (n=3). Serum AP complement activity was highly variable across the control groups.

complement activation = details: relative to compstatin amidated at the C-terminus; based on published data; cited from earlier work
[7] = single SC dose 3, 10 or 30 mg/kg
[8] = SC 3, 10, 30 mg/kg, single or 3x daily

siRNA 58: siRNA 53 further modified; sense SEQ ID NO: 325 / antisense SEQ ID NO: 275; GalNAc conjugated via NHC6 linker at 5′ end of sense strand (sense {GalNAc-NHC6}-mC*mC*fAmAmCmUfAfCfAmUmGfAmAmCmCmUfA*mC*mA; antisense mU*fG*mUmAmGmGmUmUmCmAmUmGmUfAmGmUmUmGmG*mC*mU) [siRNA 53 further modified; GalNAc conjugated via NHC6 linker at 5′ end of sense strand]
reduction of liver C3 mRNA vs vehicle control (C3 mRNA [1]; single SC dose 3 mg/kg): 89%
reduction of liver C3 mRNA vs vehicle control (C3 mRNA [1]; single SC dose 10 mg/kg): 97%
reduction of liver C3 mRNA vs vehicle control (C3 mRNA [1]; single SC dose 30 mg/kg): 99%
duration of liver C3 mRNA reduction (C3 mRNA [1]; [7]): sustained at day 46
reduction of serum C3 protein vs baseline (C3 protein [2]; single SC dose 3 mg/kg): 77%
reduction of serum C3 protein vs baseline (C3 protein [2]; single SC dose 10 mg/kg): 85%
reduction of serum C3 protein vs baseline (C3 protein [2]; single SC dose 30 mg/kg): 90%
duration of serum C3 protein reduction (C3 protein [2]; [7]): sustained out to day 67
reduction of alternative complement pathway activity (AH50) vs baseline ([3]; single SC dose 3 mg/kg, by day 29): 65%
reduction of alternative complement pathway activity (AH50) vs baseline ([3]; single SC dose 3 mg/kg, day 67): 68%
reduction of alternative complement pathway activity (AH50) vs baseline ([3]; single SC dose 10 mg/kg, by day 29): 82%
reduction of alternative complement pathway activity (AH50) vs baseline ([3]; single SC dose 10 mg/kg, day 67): 91%
reduction of alternative complement pathway activity (AH50) vs baseline ([3]; single SC dose 30 mg/kg, by day 29): 92%
reduction of alternative complement pathway activity (AH50) vs baseline ([3]; single SC dose 30 mg/kg, day 67): 98%

siRNA 59: siRNA 33 further modified; sense SEQ ID NO: 326 / antisense SEQ ID NO: 260; GalNAc conjugated via NHC6 linker at 5′ end of sense strand (sense {GalNAc-NHC6}-mU*mC*fCmAmAmGfCfCfUmUmGfGmCmUmCmAfA*mU*mA; antisense mU*fA*mUmUmGmAmGmCmCmAmAmGmGfCmUmUmGmGmA*mA*mC) [siRNA 33 further modified; GalNAc conjugated via NHC6 linker at 5′ end of sense strand]
recovery of plasma C3 protein to baseline levels (C3 protein [4]; 3 mg/kg dose group, day 29): Full recovery
reduction in C3 plasma protein concentration (C3 protein [4]; 10 mg/kg dose): ~90%
plasma C3 concentration, single dose treatment vs QDx3 equivalent dose groups (C3 protein [4]; 3, 10, 30 mg/kg total dose): comparable
recovery of plasma C3 protein to baseline levels (C3 protein [4]; 10 and 30 mg/kg dose groups, final blood collection on day 29): did not appear to have fully recovered
change in plasma C3 concentration across the dose groups (C3 protein [4]; [8]): clear dose-dependent response
time at which maximal C3 protein reduction in plasma was achieved (C3 protein [4]; all dose groups): ≤ 8 study day
mean C3 expression in liver, % of gene expression in the vehicle treated arm (C3 mRNA [5]; day 3): 3%
mean C3 expression in liver, % of gene expression in the vehicle treated arm (C3 mRNA [5]; day 30): 25%
recovery of liver C3 expression (C3 mRNA [5]; all treatment animals, study termination at day 30): None of the treatment animals had fully recovered
reduction in C3 mRNA in liver across doses (C3 mRNA [5]; both terminal timepoints (day 3 and day 30)): dose-dependent manner
level of liver C3 mRNA vs vehicle control (C3 mRNA [5]; single dose PK animal groups, 3 days following treatment): significantly reduced
tolerability of the doses used [6, 8]: well-tolerated
body weight following TA administration ([6]; all treatment groups): no loss in body weight
signs of distress or behavioral changes ([6]; all treatment groups): No signs of distress or behavioral changes
change in AP Wieslab activity (alternative pathway; dose groups other than high-dose (3 and 10 mg/kg)): No change
mean reduction in alternative pathway activity (alternative pathway; high dose group (30 mg/kg single SC), day 8 to day 15 post-dose): approximately 90%

Ac-ICV(5-methyl-W)QDWGAHRCT-CONH2 (Ac-ICV[Trp(5-Me)]QDWGAHRCT-NH2; not fully specified (bridges); printed as Ac-ICV(5-methyl-W)QDWGAHRCT-CONH2; cysteine pairing not given here) [Ac-V4(5-MeW)/H9A]
Activity over compstatin (complement activation): 67× more

Ac-ICVWQDWGAHRCdT-COOH [AC-V4W/H9A/T13dT-OH]
Activity over compstatin (complement activation): 55× more
